Assay results reported in BindingDB's records for patent WO2022129953 (HEPTARES THERAPEUTICS LIMITED, 2022).
Where “and” joins values, the source holds several entries; their conditions need not be identical. Equal values may be shown once.

The compounds below were run against Replicase polyprotein 1ab (Severe acute respiratory syndrome coronavirus 2, UniProt P0DTD1) (assay: SARS-CoV-2 Mpro enzyme assay).
Protocol: The activity of SARS-Cov-2 Mpro was determined in a Fluorescence Resonance Energy Transfer (FRET)-based enzymatic assay using FRET Substrate Dabcyl-KTSAVLQSGFRKM-E(Edans)-Amide. In brief, […] of test compounds (concentrations ranging from […]) was preincubated with […] of 20 nM (final concentration) Mpro enzyme for 30 min at 30 °C in an assay buffer containing 20 mM HEPES, 120 mM NaCI, 0.4 mM EDTA, and 4 mM DTT and 20% glycerol. Reaction was initiated by addition of 10 pL of […] (final concentration) of FRET substrate (Dabcyl-KTSAVLQSGFRKM-E (Edans)-Amide). The reaction was incubated for 1 h and the resulting fluorescent intensity was measured at Ex=360 nm/Em=490 nm at 30 °C using a SPARK 20M plate reader (Tecan). Boceprevir was used a reference standard compound. pICso and pKi were determined using 4PL GraphPad Prism and data were represented as a mean n=2± SD.
In the case of `NC(=O)C(=O)C(C[C@@H]1CCNC1=O)NC(=O)[C@H](CC1CC1)NC(=O)/C=C/c1ccc(Cl)cc1F` (stereo partly specified) [WO2022129953, Example 1], the IC50 is reported as 13 nM. With `NC(=O)C(=O)C(C[C@@H]1CCNC1=O)NC(=O)[C@H](CC1CC1)NC(=O)/C=C/c1ccccc1` (stereo partly specified) [WO2022129953, Example 2] the IC50 was 20 nM. In the case of `NC(=O)C(=O)C(C[C@@H]1CCNC1=O)NC(=O)[C@H](CC1CC1)NC(=O)OCc1ccccc1` (stereo partly specified) [WO2022129953, Example 3], the IC50 is reported as 25 nM. Compound `NC(=O)/C(=N\O)C(C[C@@H]1CCNC1=O)NC(=O)[C@H](CC1CC1)NC(=O)/C=C/c1ccccc1` (stereo partly specified) [WO2022129953, Example 4] has an IC50 of 1000 nM. `CC(C)(C)NC(=O)C(=O)C(CC1CCNC1=O)NC(=O)[C@H](CC1CC1)NC(=O)/C=C/c1ccc(Cl)cc1F` (stereo partly specified) [WO2022129953, Example 5] was tested, and the IC50 was 501 nM. `NC(=O)C(=O)C(CC1CC1)NC(=O)[C@H](CC1CC1)NC(=O)/C=C/c1ccccc1` (stereo partly specified) [WO2022129953, Example 6] showed an IC50 of 5010 nM. `NC(=O)C(=O)C(CC1CCCC1)NC(=O)[C@H](CC1CC1)NC(=O)/C=C/c1ccccc1` (stereo partly specified) [WO2022129953, Example 7] showed an IC50 of 7940 nM. For `CC(C)(C)C[C@H](NC(=O)/C=C/c1ccc(Cl)cc1Cl)C(=O)NC(C[C@@H]1CCNC1=O)C(=O)C(=O)C#N` (stereo partly specified) [WO2022129953, Example 9], the IC50 was 398 nM. `CC(C)(C)C[C@H](NC(=O)/C=C/c1ccc(Cl)cc1Cl)C(=O)NC(C[C@@H]1CCNC1=O)C(=O)C(=O)NC1CC1` (stereo partly specified) [WO2022129953, Example 10] showed an IC50 of 6.31 nM. With `CC(C)(C)C[C@H](NC(=O)/C=C/c1ccc(Cl)cc1F)C(=O)NC(C[C@@H]1CCNC1=O)C(=O)C(=O)NC1CC1` (stereo partly specified) [WO2022129953, Example 11] the IC50 was 7.94 nM. `C[C@@H](CC(=O)N[C@@H](CC(C)(C)C)C(=O)NC(C[C@@H]1CCNC1=O)C(=O)C(=O)NC1CC1)c1ccccc1` (stereo partly specified) [WO2022129953, Example 12] showed an IC50 of 16 nM. `C[C@H](CC(=O)N[C@@H](CC(C)(C)C)C(=O)NC(C[C@@H]1CCNC1=O)C(=O)C(=O)NC1CC1)c1ccccc1` (stereo partly specified) [WO2022129953, Example 13] was tested, and the IC50 was 16 nM. With `CC[C@@H](CC(=O)N[C@@H](CC(C)(C)C)C(=O)NC(C[C@@H]1CCNC1=O)C(=O)C(=O)NC1CC1)c1ccccc1` (stereo partly specified) [WO2022129953, Example 14] the IC50 was 7.9 nM. `CC[C@H](CC(=O)N[C@@H](CC(C)(C)C)C(=O)NC(C[C@@H]1CCNC1=O)C(=O)C(=O)NC1CC1)c1ccccc1` (stereo partly specified) [WO2022129953, Example 15] was tested, and the IC50 was 10 nM. `CC(C)(C)C[C@H](NC(=O)C[C@@H](c1ccccc1)C(F)(F)F)C(=O)NC(C[C@@H]1CCNC1=O)C(=O)C(=O)NC1CC1` (stereo partly specified) [WO2022129953, Example 16] was tested, and the IC50 was 20 nM. With `CC(C)(C)C[C@H](NC(=O)C[C@H](c1ccccc1)C(F)(F)F)C(=O)NC(C[C@@H]1CCNC1=O)C(=O)C(=O)NC1CC1` (stereo partly specified) [WO2022129953, Example 17] the IC50 was 13 nM. Compound `CC(C)C[C@H](NC(=O)/C=C/c1ccc(Cl)cc1F)C(=O)NC(C[C@@H]1CCNC1=O)C(=O)C(N)=O` (stereo partly specified) [WO2022129953, Example 18] has an IC50 of 13 nM. In the case of `CCNC(=O)C(=O)C(C[C@@H]1CCNC1=O)NC(=O)[C@H](CC1CC1)NC(=O)/C=C/c1ccc(Cl)cc1F` (stereo partly specified) [WO2022129953, Example 19], the IC50 is reported as 13 nM. For `NC(=O)C(=O)C(C[C@@H]1CCNC1=O)NC(=O)[C@H](CC1CC1)NC(=O)/C=C/c1ccc(Cl)cc1Cl` (stereo partly specified) [WO2022129953, Example 20], the IC50 was 100 nM. With `O=C(/C=C/c1ccc(Cl)cc1F)N[C@@H](CC1CC1)C(=O)NC(C[C@@H]1CCNC1=O)C(=O)C(=O)NC1CC1` (stereo partly specified) [WO2022129953, Example 21] the IC50 was 7.94 nM and 16 nM. With `CC(C)(C)C[C@H](NC(=O)/C=C/c1ccc(Cl)cc1F)C(=O)NC(C[C@@H]1CCNC1=O)C(=O)C(N)=O` (stereo partly specified) [WO2022129953, Example 22] the IC50 was 6.31 nM. `CCNC(=O)C(=O)C(C[C@@H]1CCNC1=O)NC(=O)[C@H](CC(C)(C)C)NC(=O)/C=C/c1ccc(Cl)cc1F` (stereo partly specified) [WO2022129953, Example 23] was tested, and the IC50 was 13 nM. Compound `CCNC(=O)C(=O)C(C[C@@H]1CCNC1=O)NC(=O)[C@H](CC1CC1)NC(=O)/C=C/c1ccc(Cl)cc1Cl` (stereo partly specified) [WO2022129953, Example 24] has an IC50 of 13 nM. Compound `O=C(/C=C/c1ccc(Cl)cc1Cl)N[C@@H](CC1CC1)C(=O)NC(C[C@@H]1CCNC1=O)C(=O)C(=O)NC1CC1` (stereo partly specified) [WO2022129953, Example 25] has an IC50 of 10 nM. `CCNC(=O)C(=O)C(C[C@@H]1CCNC1=O)NC(=O)[C@H](CC(C)(C)C)NC(=O)/C=C/c1ccc(Cl)cc1Cl` (stereo partly specified) [WO2022129953, Example 26] gave an IC50 of 10 nM. Work on `CC(C)(C)C[C@H](NC(=O)/C=C/c1ccc(Cl)cc1Cl)C(=O)NC(C[C@@H]1CCNC1=O)C(=O)C(N)=O` (stereo partly specified) [WO2022129953, Example 27] yielded an IC50 of 7.9 nM. Work on `O=C(N[C@@H](CC1CC1)C(=O)NC(C[C@@H]1CCNC1=O)C(=O)C(=O)NC1CC1)OCc1ccccc1` (stereo partly specified) [WO2022129953, Example 29] yielded an IC50 of 16 nM. `O=C(CCc1ccc(Cl)cc1Cl)N[C@@H](CC1CC1)C(=O)NC(C[C@@H]1CCNC1=O)C(=O)C(=O)NC1CC1` (stereo partly specified) [WO2022129953, Example 30] was tested, and the IC50 was 20 nM. In the case of `O=C(/C=C/c1ccc(Cl)cc1F)N[C@@H](CC1CCC1)C(=O)NC(C[C@@H]1CCNC1=O)C(=O)C(=O)NC1CC1` (stereo partly specified) [WO2022129953, Example 31], the IC50 is reported as 25 nM. Compound `CC[C@@H](CC(=O)N[C@@H](CC1CC1)C(=O)NC(C[C@@H]1CCNC1=O)C(=O)C(=O)NC1CC1)c1ccccc1` (stereo partly specified) [WO2022129953, Example 32] has an IC50 of 13 nM. `CC[C@H](CC(=O)N[C@@H](CC1CC1)C(=O)NC(C[C@@H]1CCNC1=O)C(=O)C(=O)NC1CC1)c1ccccc1` (stereo partly specified) [WO2022129953, Example 33] was tested, and the IC50 was 25 nM.
